Holding throughout (format): cell-based, human
The subject of series [1] is MEG-01 cells. As to the kind of experiment: Viability (proliferation) assay, Trypan blue exclusion, MEG-01.
The test system of series [2] is MEG-01 cells. The series can be described thus: Annexin V-FITC and PI apoptosis assay, MEG-01. As to the method:
Flow cytometric analysis. Cells were analyzed using a FACSCalibur flow cytofluorometer (Becton-Dickinson), with CellQuestPro ver. 3.3 software. The data was further analyzed with FlowJo ver. 6.2, and WinMDI 2.8 software. Proper gating was performed to characterize each cell population (MEG-01 cells and platelets). The population that corresponds to platelets (small, granulated particles), is PI negative because thrombocytes are anucleated cells (only the viable cells were considered) and were distinguished by their capacity to become activated, undergoing shape change in response to agonist and to show phosphatidylserine (PS) exposure when activated. Platelets were further separated from the megakaryocytic cells, by differential centrifugation, considering the size difference between these cell populations (1-5 μm for platelets and 35-150 μm for megakaryocytic cell line MEG-01) and analyzed separately. Voltage and channels settings were adjusted accordingly. Analyzed values were obtained with WinMDI ver. 2.8.
Apoptosis Assays using Flow Cytometry with Annexin V-FITC and propidium iodide (PI). For induction of typical apoptosis, cells were grown in the presence of 1 μM staurosporine (Sigma-Aldrich) for 6 hours. The staurosporine treated cells were stained as follows: control 1 with PI, control 2 with Annexin V-FITC and control 3 both PI and Annexin V-FITC in order to have the brightest controls for compensation and proper collection of the flow cytometry data. Cell necrosis was induced by heat shock (65° C. for 30 minutes). The stained control, both PI and Annexin V-FITC labeled, was then used as the reference in establishing the level of apoptosis induced by the treatments. Data was collected on logarithmic modes, two-colors. Annexin V-FITC corresponds to FL1 H channel, and PI to FL3H or FL2H channels.
Annexin V-FITC and PI apoptosis assay staining protocol. Apoptosis Annexin V-FITC and PI kit from BD Biosciences, CA, USA, was used. 10^5-10^6 cells were stained with 50 μg/ml PI and with 0.5 μg/ml FITC-labeled Annexin V using the staining protocol provided by the supplier. Samples were then analyzed immediately by flow cytometry.

The test system of series [3] is MEG-01 cells. The series can be described thus: Thrombocytopoiesis / proplatelet formation by microscopy. On the procedure: Light microscopy (phase contrast) and DAPI fluorescence microscopy. High quality pictures and live imaging were obtained at Cleveland Clinic Imaging Core (Cleveland, Ohio). DAPI staining of cultured MEG-01 cells was performed with fresh cells. For live imaging (observing a single cell for a 24 hour period of time) of the thrombocytopoiesis process, MEG-01 suspension cells were made adherent by using Fibronectin (FN) coated culture dishes. FN was used, at 5 μg/cm^2 and incubated at 37° C. for 1 h, as recommended by the supplier (BD Biosciences, Bedford, Mass., USA).
Scanning electron microscopy (SEM). Cell preparation and pictures were performed at the Microscopy Core Facility (Cleveland Clinic). Cells were grown for 4 days in the presence of 10 μM DMAT and then collected by differential centrifugation. Cells were fixed in glutaraldehyde and then further processed at the Core. The clot was prepared with platelets collected from MEG-01 cultures treated with 10 μM DMAT. Human thrombin 0.5 U/ml for 15 minutes was used to activate them.

`CCCCCCCCCCCCCC(=O)O[C@@H]1[C@@H](C)[C@@]2(O)[C@@H](C=C(CO)C[C@]3(O)C(=O)C(C)=C[C@@H]23)[C@@H]2C(C)(C)[C@]12OC(C)=O` [PMA, Phorbol 12-myristate 13-acetate, reference compound]: the “proliferation of MEG-01 cells (Trypan Blue exclusion)” value in the series on MEG-01 cells [1] (5 nM PMA, five days of treatment) was “a decrease in proliferation was observed”.

Take `Brc1c(Br)c(Br)c2[nH]nnc2c1Br` [TBB, 4,5,6,7-tetrabromobenzotriazole]: the “cytotoxicity (necrosis) in MEG-01 cells” value in the series with MEG-01 cells [2] is “without being cytotoxic”. In addition, in the series with MEG-01 cells [2] (24 to 96 hours), the “dose and time dependence of induced apoptosis and phenotype change” value was “dose and time dependent”. In addition, the thrombocytopoiesis result with MEG-01 cells [3] is reported as “induced thrombocytopoiesis”. For the same molecule, the “cell number / proliferation rate of MEG-01 cells” value with MEG-01 cells [1] (100 μM TBB, 4 days of treatment) is “maintained a steady number of cells”.

These data come from patent US20090054507A1, “CONTROL OF MALIGNANT CELLS BY KINASE INHIBITION” (CLEVELAND STATE UNIVERSITY, priority 2006, published 2009).
